Data: ChEMBL document CHEMBL1155946, “Design, synthesis and biological evaluation of glutathione peptidomimetics as components of anti-Parkinson prodrugs” (J Med Chem, 2008)
The source made the active and inactive calls. No cut-off for these calls is given here.

Assays:
MDCK = assay: Inhibition of [3H]glutathione uptake at glutathione transporter in MDCK cells at 10 nM to 1000 nM by HPLC; type: cell-based; details: Canis lupus familiaris
[1] = Metabolic stability in rat brain at 37 degC; type: ADME, tissue-based
[2] = Metabolic stability in rat plasma at 37 degC; type: ADME, cell-free
[3] = Stability in buffer solution at pH 7.2

For `N[C@@H](CNC(=O)N[C@@H](CSSCC(=O)C(=O)NCCc1ccc(O)c(O)c1)C(=O)NCC(=O)O)C(=O)O`, the Activity (MDCK) was “Active”, the half-life [1] was 6 h and the half-life [2] was 3 h. The half-life [3] was greater than 12 h.

In the case of `N[C@@H](CNC(=O)N[C@@H](CSSCC(=O)C(=O)NC12CC3CC(CC(C3)C1)C2)C(=O)NCC(=O)O)C(=O)O`, the Activity (MDCK) is reported as “Active”.
